Measurements as given in patent publication US20080125406A1, “Method for Treating Primary and Secondary Forms of Glaucoma” (priority 2005, published 2008).
“And” between values parts separate entries of the source, which are not always exact repeats. Identical values can stand only once.

Assays:
[1] = tested on: IOP elevation associated with topical dexamethasone; conditions: topical administration, rabbits; cited from earlier work
[2] = tested on: IOP of patients with glaucoma caused by intravitreal injections of glucocorticoids; test: Single administration of anecortave acetate in patients with glaucoma caused by intravitreal glucocorticoids, Example 3; format: in vivo, human (patients)
From the text: All patients were on maximal tolerated medical therapy for glaucoma and continued on their pre-study medications for the duration of the study.
In this group of eight eyes, three of which had prior intraocular surgery, and all of which were on at least three different types of glaucoma medications (maximum 6 medications and a mean of 4.1 different drug classes) the IOP decrease was seen as early as one week (mean 11.4 mm Hg), and appeared to reach a maximum decrease at three weeks (mean 16.4 mm Hg). FIG. 3 illustrates the decrease in IOP observed in these patients for twenty months.

[3] = tested on: IOP of patients with primary open angle glaucoma; test: Single anterior juxtascleral depot (AJD) of anecortave acetate in glaucoma patients, Example 2; format: in vivo, human (patients); conditions: single ~24 mg AJD
From the text: Methods: An investigator IND and IRB approval was obtained. All patients gave informed consent. […] Prior glaucoma medications were not changed throughout study. Results: Six subjects with glaucoma and IOP≧23 mmHg (POAG [4], PDS [1], PXF [1]) mean age 59+/−8 years. Mean C/D ratio 0.8+/−0.2. Prior glaucoma medications included prostaglandins, beta blockers and/or alpha agonists (four on 1, one on 3, and one on 4). Mean pretreatment IOP was 31.3+/−11.3 mmHg. […] Patients were followed for twelve (12) months. The IOP-lowering effects peaked at approximately one month. The duration of effectiveness of the anecortave acetate was at least twelve (12) months. […] Treatment with prior glaucoma medications was discontinued for two patients due to the surprising IOP-lowering effects of the juxtasclerally administered anecortave acetate. This new method of treatment obviates problems with eye drops and many issues with compliance. Clinically meaningful additional medium-term IOP reduction is possible with a single anterior juxtascleral depot injection of anecortave acetate, much more than presently obtained with any currently available adjunctive medications.

[4] = tested on: myocilin expression in trabecular meshwork cells; conditions: cultured trabecular meshwork cells; cited from earlier work
[5] = tested on: IOP of patients; test: Randomized dose study of anecortave acetate AJD 3, 15, 30 mg vs vehicle, Example 6; format: in vivo, human (patients)
Protocol: Eligible patients were randomized into four groups to receive AJD as follows: • Anecortave acetate vehicle, 0.5 mL (21 patients) • Anecortave acetate 3 mg (0.5 mL, 0.6% suspension) (22 patients) • Anecortave acetate 15 mg (0.5 mL, 3% suspension) (20 patients) • Anecortave acetate 30 mg (0.5 mL, 6% suspension) (22 patients).
The site of the AJD injection was 3-5 mm from the limbus, inferiorly (between 4 and 8 o'clock, FIG. 1), and the drug was injected slowly (30-90 sec) using a 30 gauge needle.

[6] = tested on: IOP of Dutch Belted rabbits having elevated IOP; test: Brinzolamide anterior sub-Tenon's or topical administration in rabbits with elevated IOP, Example 4; format: in vivo; conditions: for mean percent IOP change from baseline compared to BSS control: over 7 days
Protocol: Eyes of Dutch Belted rabbits having elevated IOP were injected in the anterior segment with a carbonic anhydrase inhibitor.
Methods: Baseline IOP was measured daily for 5 days and averaged. Seven rabbits received one anterior sub-Tenon's capsule administration of 800 μl of a non-optimized 1% ophthalmic suspension of brinzolamide (AZOPT®). Seven rabbits received a 1% ophthalmic suspension of brinzolamide (AZOPT®) delivered topically once per day for seven days. Seven rabbits received one anterior sub-Tenon's administration of 800 μl of BSS®. IOP was monitored daily at 2 hours after topical drops were administered, for seven days, and weekly thereafter until IOP measurements remained the same as baseline for two measurements. […] Mean pretreatment IOP was 27.41 mm Hg. Mean change in IOP for this group was +0.18 mm Hg. Rabbits receiving either daily topical administration or subtenon's injection of brinzolamide experienced sustained lowering of IOP. For the topical administration group mean pretreatment IOP was 28.37 mm Hg. Mean change in IOP for this group was −2.48 mm Hg. […] For the group receiving one anterior subtenon's administration of a 1% brinzolamide ophthalmic suspension the mean pretreatment IOP was 27.44 mm Hg. Mean change in IOP for this group was −1.85 mm Hg. […] (See FIG. 4). […] Longer duration of action of the brinzolamide suspension from the subtenon's capsule could be achieved using higher concentration suspensions (e.g. 5% or 10%) or via encapsulation in sustained release dose forms such as microspheres.

[7] = tested on: IOP; conditions: intravitreal injection (Singh et al. 2004); cited from earlier work
[8] = mean pretreatment IOP 31.3+/-11.3 mmHg

CC(=O)OCC(=O)[C@@]1(O)CC[C@H]2[C@@H]3CCC4=CC(=O)CC[C@]4(C)C3=CC[C@@]21C [anecortave acetate, 4, 9(11)-pregnadien-17∝,21-diol-3,20-dione-21-acetate]
effect on IOP elevation associated with topical dexamethasone [1]: decreases the IOP elevation
IOP, individual eyes, 1 week ([2]; 1 week after single ~24 mg, baselines 34-57): 30 mm Hg (2×) and 34 mm Hg (2×) and 24 mm Hg (2×) and 23 mm Hg
Mean IOP, 1 week ([2]; 1 week, mean baseline 40.125): 28.43 mm Hg
IOP, individual eyes, 2 mon ([2]; 2 mon after single ~24 mg): 30 mm Hg and 24 mm Hg and 16 mm Hg and 19 mm Hg and 23 mm Hg
Mean IOP, 2 mon ([2]; 2 mon, mean baseline 40.125): 22 mm Hg
IOP, individual eyes, 2 weeks ([2]; 2 weeks after single ~24 mg, baselines 34-57): 28 mm Hg (2×) and 32 mm Hg and 19 mm Hg (2×) and 23 mm Hg and 35 mm Hg
Mean IOP, 2 weeks ([2]; 2 weeks, mean baseline 40.125): 24.8 mm Hg
IOP, individual eyes, 3 mon ([2]; 3 mon after single ~24 mg): 32 mm Hg and 18 mm Hg (2×) and 21 mm Hg and 19 mm Hg
Mean IOP, 3 mon ([2]; 3 mon, mean baseline 40.125): 19.3 mm Hg
IOP, individual eyes, 3 weeks ([2]; 3 weeks after single ~24 mg): 30 mm Hg and 17 mm Hg and 19 mm Hg (2×) and 37 mm Hg
Mean IOP, 3 weeks ([2]; 3 weeks, mean baseline 40.125): 24.4 mm Hg
IOP, individual eyes, 4 mon ([2]; 4 mon after single ~24 mg): 17 mm Hg and 16 mm Hg and 23 mm Hg and 21 mm Hg
Mean IOP, 4 mon ([2]; 4 mon, mean baseline 40.125): 20 mm Hg
IOP, individual eyes, 4 weeks ([2]; 4 weeks after single ~24 mg): 30 mm Hg (2×) and 28 mm Hg and 31 mm Hg and 14 mm Hg and 21 mm Hg and 19 mm Hg and 36 mm Hg
Mean IOP, 4 weeks ([2]; 4 weeks, mean baseline 40.125): 26.1 mm Hg
IOP, individual eyes, 5 mon ([2]; 5 mon after single ~24 mg): 15 mm Hg and 17 mm Hg and 21 mm Hg and 22 mm Hg
Mean IOP, 5 mon ([2]; 5 mon, mean baseline 40.125): 20 mm Hg
IOP, individual eyes, 6 mon ([2]; 6 mon after single ~24 mg): 19 mm Hg (3×) and 15 mm Hg
Mean IOP, 6 mon ([2]; 6 mon, mean baseline 40.125): 17.6 mm Hg
IOP, individual eyes, 6.2 mon ([2]; 6.2 mon after single ~24 mg): 26 mm Hg
IOP, individual eyes, 6.5 mon ([2]; 6.5 mon after single ~24 mg): 38 mm Hg
IOP, individual eyes, 7 mon ([2]; 7 mon after single ~24 mg): 17 mm Hg and 18 mm Hg (2×)
Mean IOP, 7 mon ([2]; 7 mon, mean baseline 40.125): 17.6 mm Hg
Mean IOP, 8 mon ([2]; 8 mon): 26.5 mm Hg
IOP, individual eyes, 8 mon ([2]; 8 mon after single ~24 mg): 31 mm Hg and 22 mm Hg
Mean IOP, 9 mon ([2]; 9 mon): 17.3 mm Hg
IOP, individual eyes, 9 mon ([2]; 9 mon after single ~24 mg): 15 mm Hg and 19 mm Hg and 18 mm Hg
Mean IOP, 12 mon ([2]; 12 mon): 19.6 mm Hg
IOP, individual eyes, 12 mon ([2]; 12 mon after single ~24 mg): 15 mm Hg and 22 mm Hg (2×)
Mean IOP, 13 mon ([2]; 13 mon): 19.6 mm Hg
IOP, individual eyes, 13 mon ([2]; 13 mon after single ~24 mg): 18 mm Hg and 22 mm Hg and 19 mm Hg
Mean IOP, 14 mon ([2]; 14 mon): 25.5 mm Hg
IOP, individual eyes, 14 mon ([2]; 14 mon after single ~24 mg): 25 mm Hg and 26 mm Hg
Mean IOP, 15 mon ([2]; 15 mon): 24 mm Hg
IOP, individual eyes, 15 mon ([2]; 15 mon after single ~24 mg): 26 mm Hg and 22 mm Hg
Mean IOP, 17 mon ([2]; 17 mon): 18.5 mm Hg
IOP, individual eyes, 17 mon ([2]; 17 mon after single ~24 mg): 19 mm Hg and 18 mm Hg
Mean IOP, 18 mon ([2]; 18 mon): 18 mm Hg
IOP, individual eyes, 18 mon ([2]; 18 mon after single ~24 mg): 19 mm Hg and 17 mm Hg
IOP, individual eyes, 20 mon ([2]; 20 mon after single ~24 mg): 16 mm Hg
IOP decrease in all eyes ([2]; eight eyes, single ~24 mg): All eyes had marked IOP decrease
mean IOP decrease at one week ([2]; eight eyes, single ~24 mg): 11.4 mm Hg
mean IOP decrease at three weeks (maximum decrease) ([2]; eight eyes, single ~24 mg): 16.4 mm Hg
IOP decrease in one eye at 2 months ([2]; eye that needed filtration surgery, resultant IOP 30 mm Hg): 45%
time for which recurrence of elevated IOP was prevented ([2]; remaining five eyes, IOP elevation due to triamcinolone reversed): up to 12 months
adverse events ([2]; single ~24 mg): without adverse events
duration of IOP reductions ([2]; single ~24 mg): at least 6 months
patients avoiding glaucoma filtration surgery ([2]; single ~24 mg): 75%
mean IOP decrease at 3 months (percent) [3]: 38.5%+/−21%
time at which IOP-lowering effects peaked [3]: approximately one
clinically significant adverse events ([3]; followed 12 months): No clinically significant adverse events occurred
duration of effectiveness ([3]; followed 12 months): ≥ 12 months
patients with >25% IOP decrease at 3 months ([3]; prior glaucoma medications unchanged, six subjects, IOP>=23 mmHg): Five of six
mean IOP at 3 months [3, 8]: 16.4+/−6 mm Hg
mean IOP decrease at 3 months [3, 8]: 10.8+/−7.0 mmHg
patients whose prior glaucoma medications were discontinued due to IOP-lowering effect ([3]; six subjects): two
effect on dexamethasone induced myocilin expression [4]: inhibition
patients who maintained an IOP of ≦21 mm Hg for 3 months ([5]; 3 mg group (22 patients)): 7 patients
patients who maintained an IOP of ≦21 mm Hg for 3 months ([5]; 15 mg group (20 patients)): 6 patients
patients who maintained an IOP of ≦21 mm Hg for 3 months ([5]; 30 mg group (22 patients)): 11 patients
duration of IOP reductions after a single administration ([5]; p<0.05 for all concentrations relative to vehicle at month 3, ANOVA): ≥ 3 months

CCN[C@H]1CN(CCCOC)S(=O)(=O)c2sc(S(N)(=O)=O)cc21 [brinzolamide]
maximum IOP lowering from baseline ([6]; 1% suspension topically once per day for seven days): 11.1%
Mean change in IOP ([6]; 1% suspension topically once per day for seven days, mean pretreatment IOP 28.37 mm Hg): −2.48 mm Hg
time of peak levels of IOP change ([6]; both topical and subtenon's groups): ≤ 3 days
maximum percent IOP lowering ([6]; one anterior sub-Tenon's administration of 800 μl 1% suspension): 15.9%
Mean change in IOP ([6]; one anterior sub-Tenon's administration of 800 μl 1% suspension, mean pretreatment IOP 27.44 mm Hg): −1.85 mm Hg
mean percent IOP change from baseline compared to BSS control ([6]; subtenon's injection group): statistically lower at all points
mean percent IOP change from baseline compared to BSS control ([6]; topical administration group): statistically lower at all points

CC1(C)O[C@@H]2C[C@H]3[C@@H]4CCC5=CC(=O)C=C[C@]5(C)[C@@]4(F)[C@@H](O)C[C@]3(C)[C@]2(C(=O)CO)O1 [triamcinolone, triamcinolone acetonide]
IOP reached [7]: ~60 mm Hg
earliest onset of IOP elevation [7]: 4 days
